Series [1] relates to several cancer cell lines. Put plainly: CCK-8 cell viability, panel of cancer cell lines compared in words (FIGS. 3a to 3e). Format: cell-based, human. Particulars: Log IC50, FIGS. 3a to 3e; no comparator. The procedure: (§1) To identify the anticancer effect of the compounds L1, L2, and L3 according to Examples 1 to 3 of the present disclosure, and the complexes L1Pt, L2Pt, and L3Pt according to Examples 4 to 6 of the disclosure, the cell viability analysis of cancer cells using CCK-8 was performed on several cancer cell lines (colorectal cancer cell line (HT-29 cell line), breast cancer cell line (MCF-7 and MDA-MB-231), cervical cancer cell line (HeLa cell line), liver cancer cell line (Huh-7 and HepG2), brain glioma cell line (C6), lung cancer (A549), prostate cancer (PC3), kidney cancer (Caki-2), normal liver cell line (AML-12), embryonic kidney cell line (HEK-293), neural stem cell line (NE-4C) and normal breast epithelial cell line (MCF10a)).
(§2) CCK-8 (Cell counting kit-8) is analyzed using a highly water-soluble tetrazolium salt-[…]. [2-(2-methoxy-4-nitrophenyl)-3-(4-nitrophenyl)(2,4-disulfophenyl)-2H-tetrazolium, monosodium salt] is reduced under the presence of an electron medium to produces a water-soluble formazan orange dye. The amount of the formazan dye produced by dehydrogenase in a cell is directly proportional to the number of living cells.
(§3) In an experimental method for evaluating the properties of the compounds according to the present disclosure, various cancer cell lines derived from humans and normal cell lines of each tissue derived from humans and mice were used in this experiment. A complete growth medium corresponding to each cell line and having 10% of heat-inactivated FBS added thereto was used to maintain corresponding cells. The maintained cells were suspended in a volume of 200 μl at a density of 1 or 1.5×10^4 cells and planted in each well of a 96 well plate. The cells were attached to a 37° C. and 5% CO2 incubator for more than 14 hours, and we waited for a stable state. The next day, we removed the medium from the well. 100 μl of serum-free medium containing drugs of various concentrations (0 (control), 2.5, 5, 10, 20, 30, 40, 50, 100, 200 μM) was added to each well and the cells was cultured therein. On 22 hours after the incubation, 10 μl of CCK-8 solution was added to each well, followed by incubation for 2 hours. A plate on which the culture was completed was measured in terms of absorbance at 450 nm using a microplate reader.
Further, FIGS. 3a to 3e show a graph in which a IC50 value which is obtained based on 2 to 3 times executions of the cell viability analysis is converted to a Log IC50 value. […] The comparative reliability values for BTA were expressed as […], ##p<0.01, and ## #p<0.001. A red line represents the value of cisplatin. A blue line represents the value of BTA.

The subject of a further series is HeLa cell line. Briefly: CCK-8 cell viability, HeLa cervical cancer cell line. Type of series: cell-based, human. Particulars: serum-free medium, 24 hours, mean ± SD of 2 to 3 experiments. The procedure: as §1, §2, §3
(§4) Cell Viability Calculation:
(§5) • A: Absorbance value measured in a control well • B: Absorbance value measured in a well containing the drug
(§6) In Table 1 below, each compound was applied to the cells at 0, 2.5, 5, 10, 20, 30, 40, 50, 100, and 200 μM, and the cells was cultured in a medium free of serum for 24 hours. The measured absorbance value was converted to a % value based on a value of 0, such that a IC50 value was calculated. Each experiment was performed 2 to 3 times and a standard deviation value was obtained.

For another series, the system named is MCF10a. Put plainly: CCK-8 cell viability, MCF10a normal breast epithelial cell line. Format: cell-based. The note with it: for IC50: serum-free medium, 24 hours, CCK-8, mean ± SD of 2 to 3 experiments. The procedure: as §1, §2, §3, §4, §5, §6
The next series relates to A549. Put plainly: CCK-8 cell viability, A549 lung cancer cell line. Format: cell-based, human. The note with it: serum-free medium, 24 hours, mean ± SD of 2 to 3 experiments. The procedure:
as §1, §2, §3, §4, §5, §6

The next series concerns NE-4C. Put plainly: CCK-8 cell viability, NE-4C neural stem cell line. Format: cell-based. The note with it: for IC50: serum-free medium, 24 hours, CCK-8, mean ± SD of 2 to 3 experiments, read-out: IC50 NC-4C (Neural stem cell). As for the experimental part:
as §2, §3, §4, §5, §6

For another series, the system named is MCF-7. Put plainly: CCK-8 cell viability, MCF-7 breast cancer cell line. The note with it: serum-free medium, 24 hours, mean ± SD of 2 to 3 experiments. Type of series: cell-based, human. As for the experimental part:
as §1, §2, §3, §4, §5, §6

Another series concerns HepG2. Put plainly: CCK-8 cell viability, HepG2 liver cancer cell line. Type of series: cell-based, human. Particulars: serum-free medium, 24 hours, mean ± SD of 2 to 3 experiments. As for the experimental part: as §1, §2, §3, §4, §5, §6
Another series has as its system Huh-7. Briefly: CCK-8 cell viability, Huh-7 liver cancer cell line. Format: cell-based, human. Particulars: serum-free medium, 24 hours, mean ± SD of 2 to 3 experiments. The procedure:
as §1, §2, §3, §4, §5, §6

A further series relates to HEK-293. Put plainly: CCK-8 cell viability, HEK-293 embryonic kidney cell line. The note with it: serum-free medium, 24 hours, mean ± SD of 2 to 3 experiments, read-out: IC50 HEK293 (embryonic kidney). Type of series: cell-based. As for the experimental part: as §1, §2, §3, §4, §5, §6
The subject of a further series is Caki-2. Put plainly: CCK-8 cell viability, Caki-2 kidney cancer cell line. Type of series: cell-based, human. The note with it: serum-free medium, 24 hours, mean ± SD of 2 to 3 experiments. The procedure: as §1, §2, §3, §4, §5, §6
In the next series the test system is PC3. Briefly: CCK-8 cell viability, PC3 prostate cancer cell line. Format: cell-based, human. The note with it: serum-free medium, 24 hours, mean ± SD of 2 to 3 experiments. As for the experimental part: as §1, §2, §3, §4, §5, §6
The next series concerns MDA-MB-231. Briefly: CCK-8 cell viability, MDA-MB-231 breast cancer cell line. Type of series: cell-based, human. Particulars: serum-free medium, 24 hours, mean ± SD of 2 to 3 experiments. As for the experimental part:
as §1, §2, §3, §4, §5, §6

In the next series the test system is AML12. Briefly: CCK-8 cell viability, AML-12 normal liver cell line. Format: cell-based. Particulars: for IC50: serum-free medium, 24 hours, CCK-8, mean ± SD of 2 to 3 experiments. The procedure:
as §2, §3, §4, §5, §6

A further series concerns HT-29 cell line. Put plainly: CCK-8 cell viability, HT-29 colorectal cancer cell line. Format: cell-based, human. The note with it: serum-free medium, 24 hours, mean ± SD of 2 to 3 experiments. As for the experimental part: as §1, §2, §3, §4, §5, §6
The subject of the next series is C6. Briefly: CCK-8 cell viability, C6 brain glioma cell line. Format: cell-based, human. Particulars: serum-free medium, 24 hours, mean ± SD of 2 to 3 experiments. As for the experimental part:
as §1, §2, §3, §4, §5, §6

A word on the IC50: it is the midpoint of a concentration-inhibition curve.

Regarding `O=C(Nc1ccc(-c2nc3ccccc3s2)cc1)C1CNC(c2ccccn2)=N1.[Cl][Pt][Cl]` (stereo not drawn) [Example L3Pt], in series [1], the “effect on cancer cell lines, in words” value is recorded as “only exerts cell toxicity effects on liver cancer”. Further, the half-maximal inhibitory concentration (IC50) in the series on HeLa cell line was above 500 µM; in the series with MCF10a it was above 500 µM; in the series on A549, above 500 µM; with NE-4C, 32.4 ± 6.02 µM; with MCF-7 it was above 500 µM; in the series on HepG2 it was above 500 µM. Further, the IC50 with Huh-7 was 173 ± 24.3 µM; in the series with HEK-293, 206 ± 7.45 µM; in the series with Caki-2 it was above 500 µM; with PC3, above 500 µM; in the series on MDA-MB-231, above 500 µM; with AML12, above 500 µM. Besides, the concentration for half-maximal inhibition (IC50) in the series on HT-29 cell line and in the series with C6 was above 500 µM each time. Moreover, the “cytotoxicity against breast epithelial cells, in words” value in the series with MCF10a (breast epithelial cells (MCF10a), FIG. 4) is “weaker cytotoxicity or no cytotoxicity than cisplatin and BTA did”. For the same compound, in the series on NE-4C (brain neurons (NE-4C), FIG. 4), the “toxicity against brain neurons, in words” value is recorded as “greater toxicity than BTA did”. In addition, in the series on AML12 (normal hepatocytes (AML12), FIG. 4), the “toxicity against normal hepatocytes, in words” value is “did not exhibit liver cytotoxicity”.
Take “benzothiazole aniline [BTA, reference compound]”: the “effect on cancer cell lines, in words” value in series [1] is “did not have greater effect on colorectal cancer, brain glioma, and lung cancer”. The concentration for half-maximal inhibition (IC50) is 76.4 ± 23.4 µM in the series with HeLa cell line; 401 ± 136 µM in the series with MCF10a; above 500 µM in the series with A549; 60.9 ± 2.93 µM in the series with NE-4C; 104 ± 28.6 µM in the series with MCF-7; 52 ± 5.71 µM in the series on HepG2. Moreover, the half-inhibitory concentration (IC50) with Huh-7 is 406 ± 35.7 µM; in the series with HEK-293, above 500 µM; in the series with Caki-2, 463 ± 44.1 µM; in the series on PC3 it was 182 ± 7.79 µM; in the series with MDA-MB-231 it was above 500 µM; with AML12, above 500 µM. In addition, the IC50 with HT-29 cell line was 275 ± 5.03 µM; in the series on C6, 425 ± 47.8 µM.

The values are drawn from US12098147B2, “Compound having novel structure, complex comprising same, anti-cancer pharmaceutical composition, and anti-cancer drug” (ETNOVA THERAPEUTICS CORP., priority 2018, dated 2024).
